Structures are written as SMILES.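 Cells were grown in 96-well plates and exposed to each compound for 48 hours at five concentrations; endpoints were interpolated linearly between bracketing concentrations, or set to the highest concentration if not reached. Here, GI50 denotes the concentration required for 50% inhibition of growth.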 The source made the active and inactive calls. Cut-off read from the data, not from the text of the source: active = GI50 up to about 1.1 µM and inactive = higher.

The GI50 is the concentration giving 50% growth inhibition.

Among the test systems are SR; OVCAR-3; Malme-3M; NCI-H23; HOP-92; EKVX; OVCAR-5; COLO 205; M14; SF-295; SNB-75; SF-268; HCC 2998; HL-60; NCI-H460; K562; ACHN; UO-31.
What all share (assay): DTP human tumour cell line panel, 48 h

As to `CCCC[C@H](CCc1ccccc1)N(C(=O)OC)N1CCC[C@H]1COC`, the GI50 in the experiment with SR is 24.3 µM (inactive); with OVCAR-3 it was 18.3 µM (inactive); with Malme-3M it was 16.3 µM (inactive); with NCI-H23 it was 17.2 µM (inactive); in the experiment with HOP-92 it was 18.6 µM (inactive); in the experiment with EKVX, 17.5 µM (inactive). For the same molecule, the GI50 in the experiment with OVCAR-5 is 17.8 µM (inactive); with COLO 205, 16.3 µM (inactive); in the experiment with M14, 26 µM (inactive); with SF-295 it was 18.7 µM (inactive); in the experiment with SNB-75, 35.1 µM (inactive); with SF-268 it was 19.5 µM (inactive). Further, the GI50 is 14.6 µM (inactive) with HCC 2998; 46.7 µM (inactive) in the experiment on HL-60; 17.1 µM (inactive) in the experiment with NCI-H460; 21.7 µM (inactive) with K562; 16.8 µM (inactive) with ACHN; 16.7 µM (inactive) in the experiment on UO-31.
Consider `Cc1c(C(=O)/C=C/c2ccc([N+](=O)[O-])cc2)[n+]([O-])c2ccccc2[n+]1[O-]`, for which the GI50 with SR is 43 µM (inactive); in the experiment on OVCAR-3 it was 95.7 µM (inactive); in the experiment on Malme-3M, > 100 µM (inactive); in the experiment on NCI-H23, 28.2 µM (inactive); in the experiment with HOP-92, 31.8 µM (inactive); with EKVX, > 100 µM (inactive). For the same molecule, the GI50 is > 100 µM (inactive) with OVCAR-5; > 100 µM (inactive) in the experiment with COLO 205; > 100 µM (inactive) with M14; > 100 µM (inactive) with SF-295; 41.4 µM (inactive) in the experiment with SNB-75; > 100 µM (inactive) in the experiment on SF-268. Moreover, the GI50 with HCC 2998 was > 100 µM (inactive); with HL-60, 0.923 µM (active); with NCI-H460, 62.2 µM (inactive); in the experiment on K562, 27 µM (inactive); in the experiment with ACHN it was > 100 µM (inactive); with UO-31, > 100 µM (inactive).
Turning to `COc1cc2c(c(OC)c1OC)[C@@H]1CCCCC[C@@H]1CCC2=O`, the GI50 with SR is 33.3 µM (inactive); in the experiment with OVCAR-3, 97.3 µM (inactive); with Malme-3M, > 100 µM (inactive); in the experiment on NCI-H23 it was > 100 µM (inactive); in the experiment with HOP-92 it was 82.6 µM (inactive); in the experiment with EKVX, > 100 µM (inactive). The GI50 was > 100 µM (inactive) in the experiment with OVCAR-5; > 48.6 µM (inactive) in the experiment with COLO 205; > 100 µM (inactive) in the experiment with M14; > 100 µM (inactive) in the experiment with SF-295; > 100 µM (inactive) in the experiment on SNB-75; 76 µM (inactive) in the experiment on SF-268. In addition, the GI50 was > 100 µM (inactive) with HCC 2998; 22.9 µM (inactive) in the experiment on HL-60; > 58.6 µM (inactive) in the experiment on NCI-H460; 28.9 µM (inactive) with K562; > 100 µM (inactive) in the experiment on ACHN; > 100 µM (inactive) with UO-31.
As for `CC(C)C(Nc1c2ccccc2[n+](C)c2ccccc12)C(=O)O` (centres undefined), the GI50 with SR, in the experiment with OVCAR-3, with Malme-3M, in the experiment on NCI-H23, in the experiment with EKVX and in the experiment on OVCAR-5 was > 100 µM (inactive) throughout. For the same molecule, the GI50 in the experiment on COLO 205, in the experiment on M14, with SF-295, in the experiment on SNB-75, in the experiment with SF-268 and in the experiment on HCC 2998 was > 100 µM (inactive) throughout. The GI50 in the experiment with HL-60 was 99.5 µM (inactive); in the experiment with NCI-H460, > 100 µM (inactive); with K562, > 100 µM (inactive); in the experiment with ACHN, > 100 µM (inactive); with UO-31, > 100 µM (inactive).
Consider `N#C/C(=C\c1c(Cl)cccc1Cl)c1ccccc1`, for which the GI50 in the experiment on SR is 2.63 µM (inactive); in the experiment with OVCAR-3, 3.8 µM (inactive); in the experiment with Malme-3M, 10.2 µM (inactive); with NCI-H23, 14.9 µM (inactive); in the experiment with HOP-92, 8.49 µM (inactive); in the experiment on EKVX it was 18.3 µM (inactive). Further, the GI50 was > 77.4 µM (inactive) in the experiment on OVCAR-5; 2.4 µM (inactive) in the experiment on COLO 205; 6.4 µM (inactive) in the experiment on M14; 4.43 µM (inactive) with SF-295; 2.97 µM (inactive) in the experiment on SNB-75; 18.5 µM (inactive) in the experiment with SF-268. The GI50 was > 39.2 µM (inactive) in the experiment with HCC 2998; 3.6 µM (inactive) with HL-60; 4.69 µM (inactive) in the experiment with NCI-H460; 3.15 µM (inactive) in the experiment with K562; 7.59 µM (inactive) with ACHN; 17.7 µM (inactive) in the experiment with UO-31.
In the case of `NCCCCNc1ccc2c(=O)[nH][nH]c(=O)c2c1`, the GI50 in the experiment on SR, with OVCAR-3, in the experiment with Malme-3M, in the experiment on NCI-H23, with HOP-92 and in the experiment on EKVX was > 100 µM (inactive) in each case. For the same molecule, the GI50 with OVCAR-5, in the experiment with COLO 205, with M14, in the experiment on SF-295, in the experiment with SNB-75 and with SF-268 was > 100 µM (inactive) in each case. Moreover, the GI50 with HCC 2998, with HL-60, in the experiment on K562, in the experiment on ACHN and in the experiment with UO-31 was > 100 µM (inactive) in each case.
As for `CCN(CC)c1oc(N(CC)CC)c(C(=O)Nc2ccccn2)c(=O)c1C(C)=O`, the GI50 in the experiment on SR, in the experiment with OVCAR-3, in the experiment with Malme-3M, with NCI-H23, in the experiment on HOP-92 and in the experiment on EKVX was > 100 µM (inactive) throughout. Moreover, the GI50 is > 100 µM (inactive) in the experiment on OVCAR-5; > 100 µM (inactive) with COLO 205; > 100 µM (inactive) in the experiment on M14; > 100 µM (inactive) in the experiment on SNB-75; 90.8 µM (inactive) with SF-268; > 100 µM (inactive) in the experiment with NCI-H460. Besides, the GI50 in the experiment with K562, in the experiment on ACHN and in the experiment with UO-31 was > 100 µM (inactive) throughout.
`COC(=O)[C@@]1(C)/C(=N/NS(=O)(=O)c2ccc(C)cc2)CCC[C@@H]1C`: the GI50 with SR was 19.8 µM (inactive); in the experiment with OVCAR-3 it was > 100 µM (inactive); with Malme-3M it was > 100 µM (inactive); in the experiment with NCI-H23 it was > 100 µM (inactive); in the experiment with HOP-92 it was > 100 µM (inactive); in the experiment on EKVX it was > 100 µM (inactive). The GI50 in the experiment with OVCAR-5 is > 100 µM (inactive); in the experiment with COLO 205, 69.2 µM (inactive); in the experiment on M14, > 100 µM (inactive); with SF-295, > 100 µM (inactive); in the experiment on SNB-75, > 100 µM (inactive); in the experiment with SF-268 it was > 100 µM (inactive). Also, the GI50 with HCC 2998 is > 100 µM (inactive); in the experiment on HL-60 it was 6.37 µM (inactive); in the experiment on NCI-H460 it was 34 µM (inactive); in the experiment on K562, 74.3 µM (inactive); with ACHN, > 100 µM (inactive); in the experiment with UO-31, > 100 µM (inactive).
Consider `COc1cc(OC)c(/C=C2\N=C(C)N(Nc3nnc(NN4C(=O)/C(=C/c5c(OC)cc(OC)cc5OC)N=C4C)c4ccccc34)C2=O)c(OC)c1`, for which the GI50 with SR is > 100 µM (inactive); in the experiment on NCI-H23, > 100 µM (inactive); with HOP-92 it was > 100 µM (inactive); in the experiment with EKVX, 94.4 µM (inactive); in the experiment on OVCAR-5 it was > 100 µM (inactive); with COLO 205 it was > 100 µM (inactive). Further, the GI50 in the experiment on M14 was > 100 µM (inactive); in the experiment on SF-295, 93.3 µM (inactive); in the experiment on SNB-75, 42.3 µM (inactive); with SF-268, > 100 µM (inactive); with HL-60, > 100 µM (inactive); in the experiment on NCI-H460 it was > 100 µM (inactive). Moreover, the GI50 in the experiment on K562 and in the experiment with ACHN was > 100 µM (inactive) in each case.
`CC(=O)OC1CCC2OOC1O2` (centres undefined): the GI50 with SR, in the experiment on OVCAR-3, in the experiment on Malme-3M, in the experiment on NCI-H23, in the experiment with EKVX and in the experiment with OVCAR-5 was > 100 µM (inactive) in each case. The GI50 in the experiment on COLO 205, in the experiment with M14, in the experiment on SF-295, with SNB-75, in the experiment with SF-268 and in the experiment on HCC 2998 was > 100 µM (inactive) each time. For the same molecule, the GI50 in the experiment with HL-60, with NCI-H460, in the experiment with K562, with ACHN and in the experiment on UO-31 was > 100 µM (inactive) each time.
`CCCCC(N)CSSCC(N)CCCC` (centres undefined): the GI50 in the experiment on SR is 17.5 µM (inactive); with OVCAR-3, 20.8 µM (inactive); in the experiment with Malme-3M, 18.1 µM (inactive); in the experiment with NCI-H23, 24.8 µM (inactive); with EKVX it was 25.2 µM (inactive); in the experiment with OVCAR-5, 20.5 µM (inactive). Moreover, the GI50 was 52.7 µM (inactive) with COLO 205; 17.9 µM (inactive) with M14; 33.3 µM (inactive) in the experiment with SF-295; 30.6 µM (inactive) in the experiment with SNB-75; 26.9 µM (inactive) with SF-268; 19 µM (inactive) in the experiment with HCC 2998. Also, the GI50 with HL-60 is 16.4 µM (inactive); with NCI-H460 it was 36.7 µM (inactive); in the experiment on K562, 19.4 µM (inactive); in the experiment on ACHN, 34.4 µM (inactive); in the experiment with UO-31, 21.4 µM (inactive).
Regarding `CSCCOC(=O)C(=[N+]=[N-])c1ccc([N+](=O)[O-])cc1`, the GI50 in the experiment with SR, with OVCAR-3, in the experiment with Malme-3M, with NCI-H23, in the experiment on EKVX and in the experiment with OVCAR-5 was > 100 µM (inactive) throughout. The GI50 in the experiment on COLO 205, with M14, in the experiment on SF-295, in the experiment on SNB-75, in the experiment on SF-268 and with HCC 2998 was > 100 µM (inactive) throughout. Moreover, the GI50 in the experiment with HL-60, in the experiment with NCI-H460, with K562, in the experiment with ACHN and with UO-31 was > 100 µM (inactive) throughout.

(Values after ChEMBL document CHEMBL1201862, “PubChem BioAssay data set” (2004).)
